Data published in publication PMC3139024 (Bioorganic & medicinal chemistry letters, 2011).

What was measured:
[1] = system: panel of 15 bacterial strains; assay: organism not typed; assay type: cell-based
HsPDF = biological target: T1, HsPDF (Homo sapiens, UniProt Q9HBH1); assay: HsPDF inhibition, potency and selectivity profiling; assay type: biochemical; conditions: for inhibition at 100 µM: read-out: HsPDF (%I); for HsPDF (%I): % Inhibition at 100 μM, average of duplicates, 100: ≥100 %I, 0: ≤0 %I
T1 sequence (Q9HBH1 40-243): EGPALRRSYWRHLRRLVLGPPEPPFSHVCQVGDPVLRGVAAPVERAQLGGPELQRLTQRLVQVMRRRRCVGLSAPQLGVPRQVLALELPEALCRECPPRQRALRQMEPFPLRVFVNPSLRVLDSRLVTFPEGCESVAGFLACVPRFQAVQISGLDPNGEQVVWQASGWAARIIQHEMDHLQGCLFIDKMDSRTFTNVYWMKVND

Y79 = assay: cytotoxicity profile, Y79; assay type: cell-based; conditions: Homo sapiens, Y79, read-out: Cytotoxicity IC50, Y79
EcPDF = EcPDF (Escherichia coli, UniProt P0A6K3); assay: EcPDF inhibition, potency and selectivity profiling; assay type: biochemical; conditions: for EcPDF (%I): % Inhibition at 100 μM, average of duplicates, 100: ≥100 %I, 0: ≤0 %I
Meso47 = assay: cytotoxicity profile, Meso47; assay type: cell-based; conditions: read-out: Cytotoxicity IC50, Meso47
HEK293 = assay: cytotoxicity profile, HEK293; assay type: cell-based; conditions: Homo sapiens, HEK293, read-out: Cytotoxicity IC50, HEK293
HL-60/RV+ = assay: cytotoxicity profile, HL-60/RV+; assay type: cell-based; conditions: Homo sapiens, HL-60, read-out: Cytotoxicity IC50, HL-60/RV+
MMP-1 = biological target: T2, MMP-1 (Homo sapiens, UniProt P03956); assay: MMP-1 inhibition, metalloprotease selectivity panel; assay type: biochemical; conditions: for MMP-1 (%I): % Inhibition at 100 μM, average of duplicates, 100: ≥100 %I, 0: ≤0 %I
T2 sequence (P03956 100-469): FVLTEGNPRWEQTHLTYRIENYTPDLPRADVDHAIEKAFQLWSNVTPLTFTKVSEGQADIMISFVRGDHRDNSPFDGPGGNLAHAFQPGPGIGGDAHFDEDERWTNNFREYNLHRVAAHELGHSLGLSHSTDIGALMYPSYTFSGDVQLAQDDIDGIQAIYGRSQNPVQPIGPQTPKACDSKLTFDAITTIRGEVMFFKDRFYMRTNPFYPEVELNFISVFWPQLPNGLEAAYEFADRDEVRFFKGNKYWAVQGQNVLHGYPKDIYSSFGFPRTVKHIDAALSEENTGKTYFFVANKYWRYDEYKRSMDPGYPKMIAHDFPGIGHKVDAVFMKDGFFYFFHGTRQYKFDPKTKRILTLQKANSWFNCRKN

APN = APN (Homo sapiens, UniProt P15144); assay: APN inhibition, metalloprotease selectivity panel; assay type: biochemical; conditions: % Inhibition at 100 μM, average of duplicates; 100: ≥100 %I; 0: ≤0 %I
CWR22 = assay: cytotoxicity profile, CWR22; assay type: cell-based; conditions: CWR22, read-out: Cytotoxicity IC50, CWR22
[2] = system: panel of nine well characterized cancer cell lines; assay: cytotoxicity profile across panel of nine cancer cell lines; assay type: cell-based; conditions: read-out: cytotoxicity IC50 range across cancer cell lines
HL-60 tumors = assay: mouse xenograft model using HL-60 cells; assay type: in vivo; conditions: dose of 15 mg/kg, pilot study
metalloproteases tested = assay: activity toward the metalloproteases tested; assay type: biochemical; conditions: Suppl. Table 2

Sequence of EcPDF (P0A6K3 whole entry): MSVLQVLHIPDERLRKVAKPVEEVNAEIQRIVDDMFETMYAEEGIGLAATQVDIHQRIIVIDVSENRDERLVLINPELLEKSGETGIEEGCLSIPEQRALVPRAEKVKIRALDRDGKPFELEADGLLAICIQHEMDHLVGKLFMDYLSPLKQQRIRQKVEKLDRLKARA
Sequence of APN (P15144 whole entry, species assumed): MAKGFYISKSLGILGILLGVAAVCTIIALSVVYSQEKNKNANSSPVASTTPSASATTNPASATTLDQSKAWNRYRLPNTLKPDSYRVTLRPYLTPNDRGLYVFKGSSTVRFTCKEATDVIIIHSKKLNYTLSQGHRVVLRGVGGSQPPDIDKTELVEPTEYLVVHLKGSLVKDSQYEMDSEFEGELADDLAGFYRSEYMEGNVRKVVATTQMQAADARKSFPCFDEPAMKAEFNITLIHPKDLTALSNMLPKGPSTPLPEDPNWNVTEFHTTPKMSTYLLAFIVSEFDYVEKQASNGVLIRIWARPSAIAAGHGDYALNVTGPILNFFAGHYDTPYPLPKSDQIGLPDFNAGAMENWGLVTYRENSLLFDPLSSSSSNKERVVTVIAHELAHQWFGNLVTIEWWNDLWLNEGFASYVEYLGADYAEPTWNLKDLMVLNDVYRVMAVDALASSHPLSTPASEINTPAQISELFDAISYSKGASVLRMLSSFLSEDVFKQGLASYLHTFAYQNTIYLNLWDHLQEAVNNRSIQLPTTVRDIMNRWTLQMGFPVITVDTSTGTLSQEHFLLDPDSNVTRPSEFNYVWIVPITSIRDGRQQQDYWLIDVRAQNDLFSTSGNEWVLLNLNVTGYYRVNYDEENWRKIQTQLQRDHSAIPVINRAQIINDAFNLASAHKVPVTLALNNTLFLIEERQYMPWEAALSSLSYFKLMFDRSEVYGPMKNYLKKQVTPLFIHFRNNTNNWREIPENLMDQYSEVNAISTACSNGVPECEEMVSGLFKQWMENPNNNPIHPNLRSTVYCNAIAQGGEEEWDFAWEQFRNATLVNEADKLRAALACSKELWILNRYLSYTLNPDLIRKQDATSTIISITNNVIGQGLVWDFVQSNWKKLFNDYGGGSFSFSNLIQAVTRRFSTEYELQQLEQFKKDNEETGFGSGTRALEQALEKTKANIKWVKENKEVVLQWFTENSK

Q: With CCCCC[C@H](CC(=O)NO)C(=O)N[C@H](C(=O)N1CCC[C@H]1CO)C(C)C [Compd 1, actinonin, reference compound] as the compound, how does the “antibacterial activity, number of strains” value ([1]; panel of 15 bacterial strains) read?
A: active in 12 out of the 15 strains tested

Q: O=C1C(=O)c2c(C(=O)c3ccccc3)coc2C(Cl)=C1Cl [Compd 5] was tested. Which inhibition at 100 µM (HsPDF) did it give?
A: ≥ 100%

Q: And the IC50 (Y79)?
A: ≥ 100 µM

Q: What about the MIC [1] of the same compound?
A: > 64 µg/mL

Q: What about the IC50 (EcPDF) of the same compound?
A: > 100 µM

Q: What about the IC50 (Meso47) of the same compound?
A: ≥ 100 µM

Q: And the IC50 (HEK293)?
A: ≥ 100 µM

Q: And the IC50 (HL-60/RV+)?
A: ≥ 100 µM

Q: How did the “HsPDF (%I)” value (HsPDF) turn out when O=C1C=Cc2occ(C(=O)c3ccccc3)c2C1=O [Compd 16] was run?
A: completely inhibited

Q: What about the inhibition at 100 µM (HsPDF) of the same compound?
A: ≥ 100%

Q: And the IC50 (EcPDF)?
A: > 100 µM

Q: What about the “EcPDF (%I)” value (EcPDF) of the same compound?
A: low activity

Q: And the “MMP-1 (%I)” value (MMP-1)?
A: low activity

Q: And the “APN (%I)” value (APN)?
A: low activity

Q: What does the source list for COc1ccc(C(=O)c2coc3c2C(=O)C(=O)C=C3)cc1 [Compd 17]?
A: HsPDF (%I) (HsPDF): completely inhibited; IC50 (EcPDF): > 100 µM; EcPDF (%I) (EcPDF): low activity; IC50 (Meso47): ≥ 100 µM; MMP-1 (%I) (MMP-1): low activity; APN (%I) (APN): low activity

Q: For COc1ccc(C(=O)c2coc3c2C(=O)C(=O)C=C3Cl)cc1 [Compd 19], which inhibition at 100 µM (HsPDF) is on record?
A: ≥ 100%

Q: What about the IC50 (EcPDF) of the same compound?
A: > 100 µM

Q: What about the IC50 (Meso47) of the same compound?
A: ≥ 100 µM

Q: How did the IC50 (EcPDF) turn out when COc1ccc(C(=O)c2coc3c2C(=O)C(=O)C(Cl)=C3)cc1 [Compd 20] was run?
A: > 100 µM

Q: What about the IC50 (HEK293) of the same compound?
A: ≥ 100 µM

Q: For COc1ccc(C(=O)c2coc3c2C(=O)C(=O)C=C3Br)cc1 [Compd 21], which inhibition at 100 µM (HsPDF) is on record?
A: ≥ 100%

Q: And the IC50 (EcPDF)?
A: > 100 µM

Q: What about the IC50 (Meso47) of the same compound?
A: ≥ 100 µM

Q: COc1ccc(C(=O)c2coc3c2C(=O)C(=O)C(Cl)=C3Cl)cc1 [Compd 22] was tested. Which MIC [1] did it give?
A: > 64 µg/mL

Q: What about the IC50 (EcPDF) of the same compound?
A: > 100 µM

Q: And the “EcPDF (%I)” value (EcPDF)?
A: no significant activity

Q: And the IC50 (Meso47)?
A: ≥ 100 µM

Q: And the “MMP-1 (%I)” value (MMP-1)?
A: no significant activity

Q: And the inhibition at 100 µM (MMP-1; read-out: MMP-1 (%I))?
A: ≤ 0%

Q: With COc1ccc(C(=O)c2coc3c2C(=O)C(=O)C(Cl)=C3Cl)cc1OC [Compd 23] as the compound, how does the inhibition at 100 µM (HsPDF) read?
A: ≥ 100%

Q: And the IC50 (HEK293)?
A: ≥ 100 µM

Q: What about the IC50 (HL-60/RV+) of the same compound?
A: ≥ 100 µM

Q: How did the inhibition at 100 µM (HsPDF) turn out when COc1cc(C(=O)c2coc3c2C(=O)C(=O)C(Cl)=C3Cl)cc(OC)c1OC [Compd 24] was run?
A: ≥ 100%

Q: And the IC50 (EcPDF)?
A: > 100 µM

Q: And the IC50 (Meso47)?
A: ≥ 100 µM

Q: COc1ccc(C(=O)c2coc3c2C(=O)C(=O)C(Br)=C3Br)cc1 [Compd 25] was tested. Which inhibition at 100 µM (HsPDF) did it give?
A: ≥ 100%

Q: And the IC50 (EcPDF)?
A: > 100 µM

Q: And the IC50 (Meso47)?
A: ≥ 100 µM

Q: And the IC50 (HEK293)?
A: ≥ 100 µM

Q: And the IC50 (HL-60/RV+)?
A: ≥ 100 µM

Q: With COc1ccc(C(=O)c2coc3c2C(=O)C(=O)C(Br)=C3Br)cc1OC [Compd 26] as the compound, how does the inhibition at 100 µM (HsPDF) read?
A: ≥ 100%

Q: What about the IC50 (Y79) of the same compound?
A: ≥ 100 µM

Q: What about the IC50 (EcPDF) of the same compound?
A: > 100 µM

Q: And the IC50 (Meso47)?
A: ≥ 100 µM

Q: And the IC50 (HEK293)?
A: ≥ 100 µM

Q: And the IC50 (CWR22)?
A: ≥ 100 µM

Q: Which inhibition at 100 µM (HsPDF) does the source give for COc1cc(C(=O)c2coc3c2C(=O)C(=O)C(Br)=C3Br)cc(OC)c1OC [Compd 27] here?
A: ≥ 100%

Q: And the “EcPDF (IC50, μM)” value (EcPDF)?
A: no significant activity

Q: What about the IC50 (EcPDF) of the same compound?
A: > 100 µM

Q: And the IC50 [2]?
A: 2.8 to 37 µM

Q: And the “delay of growth of HL-60 tumors” value (HL-60 tumors)?
A: up to 40%

Q: For COc1ccc(C(=O)c2coc3c2C(=O)C(=O)c2ccccc2-3)cc1 [Compd 32], which “activity toward any of the metalloproteases tested” value (“activity toward any” below) (metalloproteases tested) is on record?
A: no activity

Q: COc1ccc(C(=O)c2coc3c2C(=O)C(=O)c2ccccc2-3)cc1OC [Compd 33] was tested. Which “activity toward any” value (metalloproteases tested) did it give?
A: no activity

Q: How did the “activity toward any” value (metalloproteases tested) turn out when COc1cc(C(=O)c2coc3c2C(=O)C(=O)c2ccccc2-3)cc(OC)c1OC [Compd 34] was run?
A: no activity
